16 molecules from patent US9834542B2, “LXR modulators” (BRISTOL-MYERS SQUIBB COMPANY, priority 2013, dated 2017) can be followed below.

The target in this test is T1, LXRβ (Homo sapiens, UniProt P55055).
T1 construct: Co-transfection expression plasmids, comprising full-length LXRα (pCMX-h LXRα[…] or LXRβ (pCMX-hLXRβ)); expressed in transfected cells; host or cells: CV-1 African Green Monkey Kidney Cells
T1 sequence (P55055 1-460): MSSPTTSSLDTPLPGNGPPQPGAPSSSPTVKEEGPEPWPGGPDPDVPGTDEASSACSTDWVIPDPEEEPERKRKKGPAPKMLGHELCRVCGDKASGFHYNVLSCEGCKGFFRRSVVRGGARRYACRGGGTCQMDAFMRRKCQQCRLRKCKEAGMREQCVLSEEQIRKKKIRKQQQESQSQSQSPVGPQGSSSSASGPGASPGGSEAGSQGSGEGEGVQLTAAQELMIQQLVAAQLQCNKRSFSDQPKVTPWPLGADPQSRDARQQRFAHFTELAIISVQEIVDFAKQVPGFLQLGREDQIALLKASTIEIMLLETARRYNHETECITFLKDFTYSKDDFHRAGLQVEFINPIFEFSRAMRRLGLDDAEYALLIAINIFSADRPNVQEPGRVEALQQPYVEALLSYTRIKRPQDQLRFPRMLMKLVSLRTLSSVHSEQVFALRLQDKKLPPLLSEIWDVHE
T1 sequence (P19793 1-462 partner): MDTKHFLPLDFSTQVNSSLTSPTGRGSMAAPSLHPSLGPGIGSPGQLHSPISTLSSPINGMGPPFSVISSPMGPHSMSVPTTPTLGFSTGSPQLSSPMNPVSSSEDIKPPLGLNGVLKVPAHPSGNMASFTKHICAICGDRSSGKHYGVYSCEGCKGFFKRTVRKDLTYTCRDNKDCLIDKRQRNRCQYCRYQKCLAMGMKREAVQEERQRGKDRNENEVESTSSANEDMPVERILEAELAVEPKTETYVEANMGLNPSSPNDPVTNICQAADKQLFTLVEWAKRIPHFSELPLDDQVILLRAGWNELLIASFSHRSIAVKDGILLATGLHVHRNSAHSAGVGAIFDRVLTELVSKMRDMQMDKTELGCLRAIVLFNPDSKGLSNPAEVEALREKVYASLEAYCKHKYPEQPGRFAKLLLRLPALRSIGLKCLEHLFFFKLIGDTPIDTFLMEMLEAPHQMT
Description: Co-transfection assay (LXRE luciferase reporter), LXRβ. The format is cell-based. The conditions noted are these: for EC50: CV-1 cells transfected with pCMX-hLXRβ and LXREx1-Tk-Luciferase, 20 hours incubation; for Emax: LXRβ co-transfection, relative to high control 1-(2,4-difluorobenzyl)-2-oxo-6-(4-phenoxyphenyl)-4-(trifluoromethyl)-1,2-dihydropyridine-3-carbonitrile, read-out: % Efficacy. The method in brief: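 CV-1 / pCMX-hLXRβ + LXREx1-Tk-Luc + β-gal; cpd 20 h, 37 °C, ≤0.5% DMSO; Steady-Glo luminescence. 11-pt ½-log curves, duplicate wells, sigmoidal fit → EC50; % efficacy vs high-control agonist, DMSO low control; mean of ≥2 expts.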
(In general: Reporter assays use an easily measured gene product as a stand-in for the process of interest.)

Broadly, the EC50 is the concentration that produces a half-maximal response. Read a low EC50 as an effect from little substance. On to `Cc1nc(C(F)(F)F)cn1-c1ccc(-c2cccc(S(C)(=O)=O)c2)cc1-c1nc(CC(C)O)oc1-c1ccc(OC(F)(F)F)cc1` (centres unmarked) [Example 536, 1-(4-(4-(2-methyl-4-(trifluoromethyl)-1H-imidazol-1-yl)-3′-(methylsulfonyl)-[1,1′-biphenyl]-3-yl)-5-(4-(trifluoromethoxy)phenyl)oxazol-2-yl)propan-2-ol], for which the concentration giving a half-maximal response (EC50) was determined as 280 nM and the Emax was 82%.

With `Cc1nc(C(F)(F)F)cn1-c1ccc(-c2cccc(S(C)(=O)=O)c2)cc1-c1nc(CC(=O)O)oc1-c1ccc(OC(F)(F)F)cc1` [Example 537, 2-(4-(4-(2-methyl-4-(trifluoromethyl)-1H-imidazol-1-yl)-3′-(methylsulfonyl)-[1,1′-biphenyl]-3-yl)-5-(4-(trifluoromethoxy)phenyl)oxazol-2-yl)acetic acid], the EC50 turned out to be 661 nM and the Emax worked out at 100%.

As to `Cc1nc(C(F)(F)F)cn1-c1ccc(-c2cccc(S(C)(=O)=O)c2)cc1-c1nc(CN(C)C)oc1-c1ccc(OC(F)(F)F)cc1` [Example 538, N,N-dimethyl-1-(4-(4-(2-methyl-4-(trifluoromethyl)-1H-imidazol-1-yl)-3′-(methylsulfonyl)-[1,1′-biphenyl]-3-yl)-5-(4-(trifluoromethoxy)phenyl)oxazol-2-yl)methanamine], the response was half-maximal at 205 nM (EC50) and the Emax came out at 79%.

On to `COCS(=O)(=O)c1cccc(-c2ccc(-n3cc(C(F)(F)F)nc3C)c(-c3nc(C)oc3-c3ccc(OC(F)(F)F)cc3)c2)c1` [Example 539, 4-(3′-((methoxymethyl)sulfonyl)-4-(2-methyl-4-(trifluoromethyl)-1H-imidazol-1-yl)-[1,1′-biphenyl]-3-yl)-2-methyl-5-(4-(trifluoromethoxy)phenyl)oxazole], for which the EC50 turned out to be 206 nM and the Emax is 81%.

Regarding `CNS(=O)(=O)c1cccc(-c2ccc(-n3cc(C(F)(F)F)nc3C)c(-c3nc(C)oc3-c3ccc(OC(F)F)cc3)c2)c1` [Example 540, 3′-(5-(4-(difluoromethoxy)phenyl)-2-methyloxazol-4-yl)-N-methyl-4′-(2-methyl-4-(trifluoromethyl)-1H-imidazol-1-yl)-[1,1′-biphenyl]-3-sulfonamide], the EC50 was found to be 28 nM and the Emax stood at 106%.

Regarding `Cc1nc(-c2cc(-c3cccc(S(=O)(=O)N(C)C)c3)ccc2-n2cc(C(F)(F)F)nc2C)c(-c2ccc(OC(F)F)cc2)o1` [Example 541, 3′-(5-(4-(difluoromethoxy)phenyl)-2-methyloxazol-4-yl)-dimethyl-4′-(2-methyl-4-(trifluoromethyl)-1H-imidazol-1-yl)-[1,1′-biphenyl]-3-sulfonamide], a half-maximal effect (EC50) was put at 25 nM and the Emax was 90%.

Regarding `Cc1nc(-c2cc(-c3cccc(C(C)(C)C(N)=O)c3)ccc2-n2cc(C(F)(F)F)nc2C)c(-c2ccc(OC(F)F)cc2)o1` [Example 542, 2-(3′-(5-(4-(difluoromethoxy)phenyl)-2-methyloxazol-4-yl)-4′-(2-methyl-4-(trifluoromethyl)-1H-imidazol-1-yl)-[1,1′-biphenyl]-3-yl)-2-methylpropanamide], the response was half-maximal at 82 nM (EC50) and the Emax was found to be 89%.

In the case of `Cc1nc(-c2cc(-c3cc(F)c(CO)c(S(C)(=O)=O)c3)ccc2-n2cc(C(F)(F)F)nc2C)c(-c2ccc(SC(F)(F)F)cc2)o1` [Example 543], the half-maximal effective concentration (EC50) came out at 67 nM and the Emax was 48%.

Regarding `Cc1nc(-c2cc(-c3cc(F)c(CO)c(S(C)(=O)=O)c3)ccc2-n2cc(C(F)(F)F)nc2C)c(-c2ccc(OC(F)(F)C(F)F)cc2)o1` [Example 544, (3-fluoro-4′-(2-methyl-4-(trifluoromethyl)-1H-imidazol-1-yl)-3′-(2-methyl-5-(4-(1,1,2,2-tetrafluoroethoxy)phenyl)oxazol-4-yl)-5-(methylsulfonyl)-[1,1′-biphenyl]-4-yl)methanol], the EC50 is 35 nM and the Emax worked out at 41%.

`Cc1nc(-c2cc(-c3cc(F)c(CO)c(S(C)(=O)=O)c3)ccc2-n2cc(C(F)(F)F)nc2C)c(-c2cccc(OC(F)(F)F)c2)o1` [Example 545, (3-fluoro-4′-(2-methyl-4-(trifluoromethyl)-1H-imidazol-1-yl)-3′-(2-methyl-5-(3-(trifluoromethoxy)phenyl)oxazol-4-yl)-5-(methylsulfonyl)-[1,1′-biphenyl]-4-yl)methanol]: a half-maximal effect (EC50) was put at 38 nM and the Emax is 32%.

In the case of `Cc1nc(-c2cc(-c3cc(F)c(CO)c(S(C)(=O)=O)c3)ccc2-n2cc(C(F)(F)F)nc2C)c(-c2cccc(OC(F)(F)C(F)F)c2)o1` [Example 546, (3-fluoro-4′-(2-methyl-4-(trifluoromethyl)-1H-imidazol-1-yl)-3′-(2-methyl-5-(3-(1,1,2,2-tetrafluoroethoxy)phenyl)oxazol-4-yl)-5-(methylsulfonyl)-[1,1′-biphenyl]-4-yl)methanol], the EC50 was determined as 119 nM and the Emax came to 51%.

With `Cc1nc(-c2cc(-c3cccc(S(C)(=O)=O)c3)ccc2-n2cc(C(F)(F)F)nc2C)c(-c2ccccc2OC(F)F)o1` [Example 547, 5-(2-(difluoromethoxy)phenyl)-2-methyl-4-(4-(2-methyl-4-(trifluoromethyl)-1H-imidazol-1-yl)-3′-(methylsulfonyl)-[1,1′-biphenyl]-3-yl)oxazole], the EC50 is 474 nM and the Emax is 39%.

As for `Cc1nc(-c2cc(-c3cc(F)c(CO)c(S(C)(=O)=O)c3)ccc2-n2cc(C(F)(F)F)nc2C)c(-c2ccccc2OC(F)F)o1` [Example 548, (3′-(5-(2-(difluoromethoxy)phenyl)-2-methyloxazol-4-yl)-3-fluoro-4′-(2-methyl-4-(trifluoromethyl)-1H-imidazol-1-yl)-5-(methylsulfonyl)-[1,1′-biphenyl]-4-yl)methanol], a half-maximal effect (EC50) was put at 84 nM and the Emax turned out to be 43%.

Take `Cc1nc(-c2cc(-c3cc(F)c(CO)c(S(C)(=O)=O)c3)ccc2-n2cc(C(F)(F)F)nc2C)c(-c2cccnc2Cl)o1` [Example 549, (3′-(5-(2-chloropyridin-3-yl)-2-methyloxazol-4-yl)-3-fluoro-4′-(2-methyl-4-(trifluoromethyl)-1H-imidazol-1-yl)-5-(methylsulfonyl)-[1,1′-biphenyl]-4-yl)methanol]: the EC50 was 483 nM and the Emax turned out to be 87%.

`Cc1nc(-c2cc(-c3cccc(S(C)(=O)=O)c3)ccc2-n2cc(C(F)(F)F)nc2C)c(-c2ccc(Cl)nc2)o1` [Example 550, 5-(6-chloropyridin-3-yl)-2-methyl-4-(4-(2-methyl-4-(trifluoromethyl)-1H-imidazol-1-yl)-3′-(methylsulfonyl)-[1,1′-biphenyl]-3-yl)oxazole]: the EC50 turned out to be 625 nM and the Emax stood at 85%.

As for `Cc1nc(-c2cc(-c3cc(F)c(CO)c(S(C)(=O)=O)c3)ccc2-n2cc(C(F)(F)F)nc2C)c(-c2ccc(Cl)nc2)o1` [Example 551, (3′-(5-(6-chloropyridin-3-yl)-2-methyloxazol-4-yl)-3-fluoro-4′-(2-methyl-4-(trifluoromethyl)-1H-imidazol-1-yl)-5-(methylsulfonyl)-[1,1′-biphenyl]-4-yl)methanol], the EC50 worked out at 522 nM and the Emax was 79%.
